Test results taken from patent publication US7294637B2 (Sepracor, Inc., priority 2000, dated 2007).
Like-named read-outs stand apart in the source and are kept apart here.

Key:
[1] = target: T1, norepinephrine transporter (Homo sapiens, UniProt P23975); assay: Functional activity, norephinephrine uptake inhibition in MDCK cell lines; type: cell-based
Sprague-Dawley rats [2] = assay: Spontaneous locomotor activity in rats (Example 123); type: in vivo, rat; settings: 20 mg/kg i.p., 60 minutes after administration
Procedure: Male Sprague-Dawley rats, (Iffa Credo, Saint-Germain/L'Arbresle, France), weighing 200-250 g at the beginning of the study, were used.
During acclimatization period, rats were housed, 2 or 3 per cage, in Makrolon type III cages, in the animal room (temperature: 20±2° C., humidity: minimum 45%, air changes:>12 per hour, light/dark cycle of 12 h/12 h [on at 7:00 A.M.]). Animals were allowed a minimum of 5 days period before experiment for acclimatization.
Rats received food (TrouwNutrition, Vigny, France) and water (tap water in water bottle) ad libitum. Rats were placed on a sawdust bedding in their cages (Goldchips, Trouw Nutrition, Vigny, France). On the day before experiments, food was withdrawn to have animals fasted overnight.
On the day of experiment, test item(s) were solubilized in 5% dextrose (w/v)/polyethylene glycol (PEG) 400 (4:1 v/v).
All test compounds were administered at 20 mg/kg as a single i.p. dose.
Twenty, 60 and 120 minutes after administration, rats were placed in a plastic box 30×30 cm in a room with low light intensity (maximum 50 lux). Locomotor activity was determined during 20 min periods using a video image analyzer (Videotrack, View Point, France). Number of occurences, distance and duration of fast and slow movements, number of occurences and duration of periods of inactivity and number of rears were measured.

serotonin transporter [3] = target: T2, serotonin transporter (Homo sapiens, UniProt P31645); assay: 5-HT uptake: displacement of serotonin ligands in vitro (methods of Gu et al.); type: binding; settings: read-out: 5-HT Uptake, Uptake Profile (IC50)
serotonin transporter [4] = target: T2, serotonin transporter; assay: Functional activity, serotonin uptake inhibition in human HEK-293 cell lines; type: cell-based; set-up: expressed in transfected cells; host or cells: HEK-293
[5] = target: T1, norepinephrine transporter; assay: NE uptake: displacement of norephinephrine ligands in vitro (methods of Galli et al.); type: binding
DAT = DAT (Homo sapiens, UniProt Q01959); assay: cell-based; set-up: expressed in transfected cells; settings: hDAT cell line; read-out: DA Uptake, Functional Assays (antagonism, EC50)
rat = assay: Acute toxicity assessment, maximum tolerated dose i.v., rat; type: in vivo; settings: rats
Procedure: (§1) An in vivo evaluation was carried out to determine the maximum tolerated dose of numerous test compounds in two animal species (mouse and rat). The compounds were administered i.v. and the animals were then observed for 72 h. Compounds 114, 115, 113, 110, 124, 125, 129, and 130 were solubilized in 5% dextrose (w/v)/polyethylene glycol 400 (4:1 v/v). Compounds 126, 127, 131, and 132 were solubilized in 10% hydroxypropyl-β-cyclodextrin (w/v).

mouse = assay: Acute toxicity assessment, maximum tolerated dose i.v., mouse; type: in vivo; settings: mice
Procedure: as §1

dopamine transporter = dopamine transporter (Homo sapiens, UniProt Q01959); assay: DA uptake: displacement of dopamine ligands in vitro (methods of Gu et al.); settings: DA Uptake, Uptake Profile (IC50, nM), displacement of dopamine ligands in vitro
rats [6] = type: in vivo, rat; settings: for % variation of the total duration of immobility: 1 h before test
Procedure: The animals were preconditioned in a pretest session, where the rats were individually forced to swim inside a vertical plexiglass cylinder containing water maintained at 19-20° C. […] Twenty four hours later, the compounds were administered intraperitoneal to the animals. One hour after administration of the test compound, animals were put back into the cylinder containing water. The total duration of immobility was measured during the last 4 minutes of a 6 minute test.
(§2) The results are expressed as the percentage of variation of the total duration of immobility calculated from the mean value of the vehicle-treated group (% variation=[(immobility duration of vehicle-immobility duration of test compound)/(immobility duration of vehicle)]×100%).

rats [7] = assay: Behavioral despair assay in rats, 3 i.p. injections (Example 143); type: in vivo, rat; settings: for % variation of the total duration of immobility: 3 i.p. injections 24 h, 5 h and 1 h before test
Description: The objective of this study was to assess the antidepressant effects of test compounds 124, 125, 126, and 127 in the behavioral despair assay in rats according to the methods described by Porsolt R. D., Anton G., Blavet N., Jalfre M., Behavioural despair in rats: a new model sensitive to antidepressant treatment, Eur. J. Pharmacol., 1978, 47, 379-391. The animals were preconditioned in a pretest session, where the rats were individually forced to swim inside a vertical plexiglass cylinder containing water maintained at 19-20° C. After 15 minutes in the water, they were allowed to dry for 15 minutes in a heated enclosure. Twenty four hours later, they were replaced in the cylinder and the total duration of immobility was measured during a 5 minute test (test session). The test compounds and vehicle were administered as a series of 3 intraperitoneal injections 24 h, 5 h and 1 h before the 5 minute test on the second day.
as §2

Sprague-Dawley rats [8] = assay: Spontaneous locomotor activity in rats (Example 141); type: in vivo, rat
Procedure: The effect of 124 and 126 on spontaneous locomotor activity in rats was determined according to the procedures outlined by Silverman et al. (Motor Activity. In “Animal behavior in the laboratory”, Chapman and Hall eds, London, p. 79-92, 1978) and Boissier et al. (Arch. Int. Pharmacodyn. 1965, 158, 212. )
Test items and test item vehicles were administered to male Sprague-Dawley rats (n=10) as a single i.p. dose (vehicle A=10% hydroxypropyl-β-cyclodextrin in water; vehicle B=4:1 5% aqueous dextrose:PEG 400). […] Locomotor activity was determined during 20 minute periods using video image analyzers. Images recorded with video cameras were digitalized and displacements of the center of gravity of the digital image spot were tracked and analyzed. When the speed of displacement of the center of gravity of the spot was below 4.26 cm/sec, the movement was considered as inactivity. When this speed was between 4.26 and 6.75 cm/sec, the movement was considered as a small movement. When this speed was above 6.75 cm/sec, the movement was considered as a large movement. The number of occurrences, distance and duration of fast and slow movements, number of occurrences and duration of periods of inactivity and number of rears were measured.

Sprague-Dawley rats [9] = assay: Spontaneous locomotor activity in rats, 1-24 hours (Example 223); type: in vivo, rat; settings: 10 mg/kg i.p.
Procedure: The effect of 124 and 126 on spontaneous locomotor activity in rats was determined according to the procedures outlined by Silverman et al. (Motor Activity. In “Animal behavior in the laboratory”, Chapman and Hall eds, London, p. 79-92, 1978) and Boissier et al. (Arch. Int. Pharmacodyn. 1965, 158, 212. ) Test items and test item vehicles were administered to male Sprague-Dawley rats (n=10) as a single i.p. dose. One, three, five, eight and twenty four hours following administration, rats were placed in a plastic box 30×30 cm in a room with low light intensity (maximum 50 lux). Locomotor activity was determined during 20 minute periods using video image analyzers. Images recorded with video cameras were digitalized and displacements of the center of gravity of the digital image spot were tracked and analyzed. When the speed of displacement of the center of gravity of the spot was below 4.26 cm/sec, the movement was considered as inactivity. When this speed was between 4.26 and 6.75 cm/sec, the movement was considered as a small movement. When this speed was above 6.75 cm/sec, the movement was considered as a large movement. The number of occurrences, distance and duration of fast and slow movements, number of occurrences and duration of periods of inactivity and number of rears were measured.

rats and monkeys = settings: rats; cited from earlier work
[10] = displacement of serotonin ligands in vitro
[11] = 5-HT Uptake, Functional Assays (antagonism, EC50, nM)
[12] = NE Uptake, Uptake Profile (IC50, nM)

T1 sequence (P23975 whole entry): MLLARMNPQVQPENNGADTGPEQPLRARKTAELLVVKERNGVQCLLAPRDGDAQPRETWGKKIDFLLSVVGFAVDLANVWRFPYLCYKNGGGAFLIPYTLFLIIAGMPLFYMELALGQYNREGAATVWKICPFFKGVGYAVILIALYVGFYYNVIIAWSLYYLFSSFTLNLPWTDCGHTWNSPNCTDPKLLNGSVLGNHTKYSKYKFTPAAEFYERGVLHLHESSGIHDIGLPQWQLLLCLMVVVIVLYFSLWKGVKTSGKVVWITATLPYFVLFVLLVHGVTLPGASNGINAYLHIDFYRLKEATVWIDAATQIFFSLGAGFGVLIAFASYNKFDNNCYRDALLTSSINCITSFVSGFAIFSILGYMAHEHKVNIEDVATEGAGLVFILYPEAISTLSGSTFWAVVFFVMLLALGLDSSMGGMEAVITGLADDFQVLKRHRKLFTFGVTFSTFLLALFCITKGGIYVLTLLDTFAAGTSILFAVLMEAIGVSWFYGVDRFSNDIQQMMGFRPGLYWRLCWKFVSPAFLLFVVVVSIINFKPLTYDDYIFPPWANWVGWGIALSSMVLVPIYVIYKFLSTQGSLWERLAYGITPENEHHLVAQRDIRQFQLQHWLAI
Sequence of dopamine transporter (Q01959 whole entry): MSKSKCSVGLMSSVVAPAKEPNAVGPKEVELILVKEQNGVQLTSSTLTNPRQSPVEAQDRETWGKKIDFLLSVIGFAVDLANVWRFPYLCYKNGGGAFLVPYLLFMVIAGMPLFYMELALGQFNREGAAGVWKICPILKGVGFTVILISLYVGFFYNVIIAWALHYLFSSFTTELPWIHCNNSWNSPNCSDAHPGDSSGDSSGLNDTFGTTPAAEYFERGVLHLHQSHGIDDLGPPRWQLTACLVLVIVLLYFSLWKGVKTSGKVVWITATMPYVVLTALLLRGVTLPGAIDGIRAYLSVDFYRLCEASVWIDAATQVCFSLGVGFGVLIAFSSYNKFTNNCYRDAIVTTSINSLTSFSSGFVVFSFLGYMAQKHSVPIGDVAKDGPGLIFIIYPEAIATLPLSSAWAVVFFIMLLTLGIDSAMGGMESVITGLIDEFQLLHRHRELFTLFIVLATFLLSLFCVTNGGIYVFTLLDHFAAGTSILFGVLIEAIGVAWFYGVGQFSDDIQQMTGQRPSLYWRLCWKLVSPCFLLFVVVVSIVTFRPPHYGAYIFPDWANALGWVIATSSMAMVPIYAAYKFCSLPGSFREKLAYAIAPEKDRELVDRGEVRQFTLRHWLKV
Sequence of DAT (Q01959 whole entry): as above
T2 sequence (P31645 whole entry): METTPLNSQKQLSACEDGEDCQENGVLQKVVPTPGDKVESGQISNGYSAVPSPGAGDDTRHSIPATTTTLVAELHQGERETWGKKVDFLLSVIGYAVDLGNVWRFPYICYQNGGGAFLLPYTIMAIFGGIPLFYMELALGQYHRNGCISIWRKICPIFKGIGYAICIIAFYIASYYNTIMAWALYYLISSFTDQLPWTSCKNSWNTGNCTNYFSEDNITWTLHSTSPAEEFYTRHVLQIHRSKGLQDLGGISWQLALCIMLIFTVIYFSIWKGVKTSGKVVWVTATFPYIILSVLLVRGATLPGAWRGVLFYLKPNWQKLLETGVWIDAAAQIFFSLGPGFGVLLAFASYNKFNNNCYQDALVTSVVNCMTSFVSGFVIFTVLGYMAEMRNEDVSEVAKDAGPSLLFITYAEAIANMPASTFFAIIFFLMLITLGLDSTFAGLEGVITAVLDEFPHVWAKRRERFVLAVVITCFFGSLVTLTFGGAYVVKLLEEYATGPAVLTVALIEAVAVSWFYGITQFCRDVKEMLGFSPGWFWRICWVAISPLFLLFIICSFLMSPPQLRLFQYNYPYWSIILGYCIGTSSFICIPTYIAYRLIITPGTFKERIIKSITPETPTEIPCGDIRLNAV

SMILES: Clc1ccc(C2(CN3CCC[C@@H](COc4ccc5c(c4)OCO5)C3)CCC2)cc1 [compound 110, (R)-3-(Benzo[1,3]dioxol-5-yloxymethyl)-1-[1-(4-chloro-phenyl)-cyclobutylmethyl]-piperidine]
- EC50 [1]: < 1000 nM
- locomotor activity compared to control animals (Sprague-Dawley rats [2]): significant increase
- IC50 (serotonin transporter [3]; [10]): < 1000 nM
- EC50 (serotonin transporter [4]; [11]): > 1000 nM
- IC50 [5, 12]: < 1000 nM
- EC50 (DAT): < 10 nM
- tolerability and mortality after 72 h (rat; 30 mg/kg i.v.): well tolerated
- tolerability and mortality after 72 h (mouse; 30 mg/kg i.v.): well tolerated
- IC50 (dopamine transporter): < 100 nM

SMILES: Clc1ccc(C2(CN3CCC[C@H](COc4ccc5c(c4)OCO5)C3)CCC2)cc1 [compound 113, (S)-3-(Benzo[1,3]dioxol-5-yloxymethyl)-1-[1-(4-chloro-phenyl)-cyclobutylmethyl]-piperidine]
- EC50 [1]: < 1000 nM
- locomotor activity compared to control animals (Sprague-Dawley rats [2]): significant increase
- IC50 (serotonin transporter [3]; [10]): < 1000 nM
- EC50 (serotonin transporter [4]; [11]): > 1000 nM
- IC50 [5, 12]: < 1000 nM
- EC50 (DAT): < 10 nM
- tolerability and mortality after 72 h (rat; 30 mg/kg i.v.): well tolerated
- tolerability and mortality after 72 h (mouse; 30 mg/kg i.v.): well tolerated
- IC50 (dopamine transporter): < 100 nM

SMILES: FC(F)(F)c1ccc(OC[C@@H]2CCCN(CC3(c4ccc(Cl)cc4)CCC3)C2)cc1 [compound 114, (R)-1-[1-(4-chloro-phenyl)-cyclobutylmethyl]-3-(4-trifluoromethyl-phenoxymethyl)-piperidine]
- EC50 [1]: < 1000 nM
- locomotor activity compared to control animals (Sprague-Dawley rats [2]): significant increase
- IC50 (serotonin transporter [3]): > 1000 nM
- EC50 (serotonin transporter [4]; [11]): > 1000 nM
- IC50 ([5]; read-out: NE Uptake, Uptake Profile (IC50)): < 1000 nM
- EC50 (DAT): < 10 nM
- tolerability and mortality after 72 h (rat; 30 mg/kg i.v.): well tolerated
- tolerability and mortality after 72 h (mouse; 30 mg/kg i.v.): well tolerated
- IC50 (dopamine transporter): < 100 nM

SMILES: O[C@H](CN1CCC[C@@H](COc2ccc(C(F)(F)F)cc2)C1)C1(c2ccc(Cl)cc2)CCC1 [compound 126, 1R-1-[1-(4-Chloro-phenyl)-cyclobutyl]-2-[(3R)-3-(4-trifluoromethyl-phenoxymethyl)-piperidin-1-yl]-ethanol]
- effectiveness (statistically significant variation >30%) (rats [6]; 2.5 mg/kg): effective
- % variation of the total duration of immobility (rats [6]; 2.5 mg/kg i.p.): 45%
- % variation of the total duration of immobility (rats [6]; 10 mg/kg i.p.): 99%
- % variation of the total duration of immobility (rats [7]; 0.25 mg/kg): 9%
- % variation of the total duration of immobility (rats [7]; 0.75 mg/kg): 47%
- effectiveness (statistically significant variation >30%) (rats [7]; 1.0 mg/kg): effective
- % variation of the total duration of immobility (rats [7]; 1.0 mg/kg): 58%
- effectiveness (statistically significant variation >30%) (rats [7]; 2.5 mg/kg): effective
- % variation of the total duration of immobility (rats [7]; 2.5 mg/kg): 76%
- EC50 [1]: < 1000 nM
- Small Movement Occurrences (Sprague-Dawley rats [8]; 5 mg/kg i.p.): 651.4 ± 141.2
- Large Movement Occurrences (Sprague-Dawley rats [8]; 5 mg/kg i.p., 20 min): 287.0 ± 34.4 ^
- Small Movement Occurrences (Sprague-Dawley rats [8]; 5 mg/kg i.p., 20 min): 711.6 ± 65.7 ^
- Large Movement Occurrences (Sprague-Dawley rats [8]; 5 mg/kg i.p., 60 min): 204.4 ± 36.3 ^
- Small Movement Occurrences (Sprague-Dawley rats [8]; 5 mg/kg i.p., 60 min): 563.5 ± 85.0 ^
- Large Movement Occurrences (Sprague-Dawley rats [8]; 5 mg/kg i.p., 120 min): 293.8 ± 68.9 ^
- Small Movement Occurrences (Sprague-Dawley rats [8]; 5 mg/kg i.p., 120 min): 717.4 ± 138.6
- Large Movement Occurrences (Sprague-Dawley rats [8]; 5 mg/kg i.p., 180 min): 270.5 ± 73.8 ^
- Large Movement Occurrences (Sprague-Dawley rats [8]; 10 mg/kg i.p., 20 min): 364.7 ± 52.7 ^
- Small Movement Occurrences (Sprague-Dawley rats [8]; 10 mg/kg i.p., 20 min): 904.3 ± 110.8
- Large Movement Occurrences (Sprague-Dawley rats [8]; 10 mg/kg i.p., 60 min): 644.5 ± 127.3
- Small Movement Occurrences (Sprague-Dawley rats [8]; 10 mg/kg i.p., 60 min): 1218.7 ± 178.9 ^
- Large Movement Occurrences (Sprague-Dawley rats [8]; 10 mg/kg i.p., 120 min): 752.7 ± 129.4
- Small Movement Occurrences (Sprague-Dawley rats [8]; 10 mg/kg i.p., 120 min): 1358.1 ± 137.1 ^
- locomotor activity compared to control animals (Sprague-Dawley rats [8]; dosed at 5 and 10 mg/kg i.p.): significant increase
- IC50 (serotonin transporter [3]; [10]): < 1000 nM
- EC50 (serotonin transporter [4]; human HEK-293 cell lines, read-out: 5-HT Uptake, Functional Assays (antagonism, EC50)): < 1000 nM
- IC50 [5, 12]: < 100 nM
- EC50 (DAT): < 10 nM
- tolerability and mortality after 72 h (rat; 10 mg/kg i.v.): well tolerated
- tolerability and mortality after 72 h (mouse; 10 mg/kg i.v.): well tolerated
- Large Movement Occurrences (Sprague-Dawley rats [9]; 1 hour): 774 ± 110 ^
- Small Movement Occurrences (Sprague-Dawley rats [9]; 1 hour): 1357 ± 125^
- Large Movement Occurrences (Sprague-Dawley rats [9]; 3 hours): 956 ± 93^
- Small Movement Occurrences (Sprague-Dawley rats [9]; 3 hours): 1610 ± 73 ^
- Large Movement Occurrences (Sprague-Dawley rats [9]; 5 hours): 866 ± 117 ^
- Small Movement Occurrences (Sprague-Dawley rats [9]; 5 hours): 1575 ± 90 ^
- Large Movement Occurrences (Sprague-Dawley rats [9]; 8 hours): 746 ± 95^
- Small Movement Occurrences (Sprague-Dawley rats [9]; 8 hours): 1489 ± 111^
- Large Movement Occurrences (Sprague-Dawley rats [9]; 24 hours): 1012 ± 81 ^
- Small Movement Occurrences (Sprague-Dawley rats [9]; 24 hours): 1544 ± 75 ^
- locomotor activity compared to control animals (Sprague-Dawley rats [9]; at all times tested (1, 3, 5, 8, 24 hours)): significant increase
- IC50 (dopamine transporter): < 10 nM

SMILES: CNCCC(Oc1ccc(C(F)(F)F)cc1)c1ccccc1 (centres unmarked) [fluoxetine]
- effect on self-administration of cocaine (rats and monkeys): decreased self-administration of cocaine
